The data set in a line: Random venous lactic acid measurement. The conditions noted are these: for months after resuming therapy; normal range 0.5-2.1 mmol/L. It is filed as in vivo, human. From the text:
Venous specimens for lactic acid determination were collected in sodium fluoride/potassium oxalate tubes, with normal tourniquet and no specific patient instruction other than the avoidance of first clenching or hand pumping. […]

On to `Cc1cn([C@H]2C[C@H](N=[N+]=[N-])[C@@H](CO)O2)c(=O)[nH]c1=O` [zidovudine], for which the venous lactate levels entry is recorded as “remained within the normal range”.

The values above are taken from patent US20090053697A1, “Pharmacological Applications of Mitochondrial DNA Assays” (priority 2001, published 2009).
